Test results published in BigSolDB 2.1.

Cc1n[nH]c(=S)s1
solubility (mole fraction)
Settings | 283.15 K | 288.15 K | 293.15 K | 298.15 K | 303.15 K | 308.15 K | 313.15 K | 318.15 K | 323.15 K
in ethanol | 0.0105 | 0.0131 | 0.0156 | 0.0184 | 0.0219 | 0.0249 | 0.0297 | 0.0342 | 0.04
in ethyl acetate | 0.0152 | 0.0173 | 0.0197 | 0.0221 | 0.0244 | 0.0272 | 0.0307 | 0.0338 | 0.038
in ethyl formate | 0.00842 | 0.01 | 0.0114 | 0.0134 | 0.0151 | 0.0176 | 0.0202 | 0.0227 | 0.0257
in isobutanol | 0.00538 | 0.00689 | 0.00881 | 0.0112 | 0.0143 | 0.0172 | 0.0216 | 0.0271 | 0.0319
in isopropanol | 0.00763 | 0.00943 | 0.0115 | 0.0143 | 0.0179 | 0.0215 | 0.0258 | 0.0314 | 0.0374
in methanol | 0.0104 | 0.0129 | 0.0153 | 0.018 | 0.0213 | 0.0246 | 0.0292 | 0.0337 | 0.0396
in methyl acetate | 0.0167 | 0.0189 | 0.021 | 0.0234 | 0.0257 | 0.0284 | 0.0313 | 0.0342 | 0.0382
in n-butanol | 0.00723 | 0.00904 | 0.0109 | 0.0136 | 0.0164 | 0.0194 | 0.0239 | 0.0287 | 0.0333
in n-butyl acetate | 0.0135 | 0.0153 | 0.0172 | 0.0194 | 0.022 | 0.0246 | 0.0274 | 0.0304 | 0.0336
in n-pentyl acetate | 0.0117 | 0.0137 | 0.0157 | 0.0178 | 0.0203 | 0.0229 | 0.0261 | 0.0289 | 0.0334
in n-propanol | 0.0097 | 0.0119 | 0.0145 | 0.0171 | 0.0206 | 0.0243 | 0.0288 | 0.033 | 0.0389
in n-propyl acetate | 0.0146 | 0.0163 | 0.0187 | 0.0213 | 0.0237 | 0.0266 | 0.0301 | 0.033 | 0.0368
